In patent publication US20040048369A1, “Control of inward-rectifier K+ ion channels” (priority 2002, published 2004):
Read-outs that look alike come from different tables or passages of the source.

How the values were obtained:
[1] = target: T1, IRK1 channels (Mus musculus, UniProt P35561); assay: Block of IRK1 currents by intracellular chemicals, inside-out patches of Xenopus oocytes injected with IRK1 cRNA; format: cell-based; conditions: for inward rectification with intracellular metal ion chelator: each at 5 mM, pH 7.6, phosphate buffer
T1 construct: expressed in transfected cells; host or cells: Xenopus laevis oocytes injected with IRK1 cRNA; inside-out patches
T1 sequence (P35561 1-428): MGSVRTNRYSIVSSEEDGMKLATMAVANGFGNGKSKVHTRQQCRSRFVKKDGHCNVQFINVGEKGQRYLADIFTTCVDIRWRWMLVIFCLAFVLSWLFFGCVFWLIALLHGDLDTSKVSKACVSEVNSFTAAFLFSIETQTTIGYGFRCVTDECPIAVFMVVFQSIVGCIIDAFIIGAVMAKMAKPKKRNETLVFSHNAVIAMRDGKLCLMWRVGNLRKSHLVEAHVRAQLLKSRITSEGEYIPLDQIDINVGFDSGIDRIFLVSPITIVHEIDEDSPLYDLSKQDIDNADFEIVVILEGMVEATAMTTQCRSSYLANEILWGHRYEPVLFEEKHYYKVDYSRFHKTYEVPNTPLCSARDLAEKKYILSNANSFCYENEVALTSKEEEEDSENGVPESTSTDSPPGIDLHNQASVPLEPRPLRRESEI
Experimental: IRK1 cDNA (Kubo et al., 1993) was cloned into the pGEM-Hess plasmid (IRK1-pGEMHess construct, provided by J. Yang). RNA was synthesized using T7 polymerase (Promega Corp., Madison, Wis.) from Nhe1-linearized cDNAs. Oocytes harvested from Xenopus laevis (Xenopus One, Ann Arbor, Mich.) were incubated in a solution containing NaCl, 82.5 mM; KCI, 2.5 mM; MgCl2, 1.0 mM; HEPES (pH 7.6), 5.0 mM and collagenase, 2-4 mg/ml. The oocyte preparation was agitated at 80 rpm for 60-90 minutes. It was then rinsed thoroughly and stored in a solution containing NaCl, 96 mM; KCl, 2.5 mM; CaCl2, 1.8 mM; MgCl2, 1.0 mM; HEPES (pH 7.6), 5 mM and gentamicin, 50 μg/ml. Defolliculated oocytes were selected and injected with RNA at least 2 and 16 hours, respectively, after collagenase treatment. All oocytes were stored at 18° C.
(§1) IRK1 currents were recorded from inside-out membrane patches of Xenopus oocytes (injected with IRK1cRNA) with an Axopatch 200B amplifier (Axon Instruments, Inc., Foster City, Calif.), filtered at 5 kHz, and sampled at 25 kHz using an analog-to-digital converter (DigiData 1200, Axon Instruments) interfaced with a personal computer. pClamp6 software (Axon Instruments) was used to control the amplifier and acquire the data. During current recording, the voltage across the membrane patch was first hyperpolarized from the 0 mV holding potential to −100 mV, and then stepped to various test voltages, or stepped directly from the holding potential. […] Background leak current correction was carried out as previously described (Lu and MacKinnon, Nature 371:243-246 (1994); Guo and Lu, 2000a). To effectively perfuse the patch, the tip of the patch pipette (3 MΣ) was immersed in a stream of intracellular solution exiting one of ten glass capillaries (ID=0.2 mm) mounted in parallel.
All recording solutions contained 100 mM K^+ contributed by KCl, K2EDTA, K2HPO4, KH2PO4, and KOH. The phosphate-buffered intracellular solution contained 5 mM K2EDTA (unless specified otherwise), and 10 mM “K2HPO4+KH2PO4” in a ratio yielding the desired pH, and sufficient KCl to bring total K^+ concentration to 100 mM (Guo and Lu, 2000a). The HEPES-buffered intracellular solution, as used in FIG. 3, contained (100 mM K^+ (Cl^−+OH^−), 5 mM EDTA and 10 mM HEPES, pH 7.2 (adjusted with KOH). The HEPES-buffered extracellular solution contained 100 mM K^+ (Cl^−+OH^−), 0.3 mM CaCl2, 1.0 mM MgCl2, and 10 mM HEPES, pH 7.6 (adjusted with KOH). In the phosphate-buffered extracellular solution, HEPES was replaced by an equal concentration of “K2HPO4+KH2PO4” in a ratio yielding pH 7.6. The divalent cation-free extracellular solution contained 5 mM EDTA. All chemicals were purchased from Fluka Chemical Corp.
In all cases the intracellular solutions contained 100 mM K^+, 5 mM EDTA and 10 mM phosphate (pH 7.6) in addition to the tested chemicals, while the extracellular solution contained 100 mM K^+, 0.3 mM Ca^2+, 1 mM Mg^2+, 10 mM phosphate (pH 7.6). The currents were corrected for background current.

[2] = target: T1, IRK1 channels; assay: Relaxation/block of inward IRK1 currents by extracellular chemicals, inside-out patches; format: cell-based; conditions: 10 mM HEPES, 3 μM HEP or 0.3 μM piperazine
Experimental: as §1
The phosphate-buffered intracellular solution contained 5 mM K2EDTA (unless specified otherwise), and 10 mM “K2HPO4+KH2PO4” in a ratio yielding the desired pH, and sufficient KCl to bring total K^+ concentration to 100 mM (Guo and Lu, 2000a). The HEPES-buffered intracellular solution, as used in FIG. 3, contained (100 mM K^+ (Cl^−+OH^−), 5 mM EDTA and 10 mM HEPES, pH 7.2 (adjusted with KOH). The HEPES-buffered extracellular solution contained 100 mM K^+ (Cl^−+OH^−), 0.3 mM CaCl2, 1.0 mM MgCl2, and 10 mM HEPES, pH 7.6 (adjusted with KOH). In the phosphate-buffered extracellular solution, HEPES was replaced by an equal concentration of “K2HPO4+KH2PO4” in a ratio yielding pH 7.6. The divalent cation-free extracellular solution contained 5 mM EDTA. All chemicals were purchased from Fluka Chemical Corp.
Since solutions in the quoted study were HEPES buffered, currents elicited with the voltage protocol used to produce the data in FIG. 12 were evaluated with no added divalent cations in the extracellular solution to determine whether the current relaxation was due to the use of extracellular HEPES.
The channel block associated with extracellular HEPES was examined to determine whether it could also be caused by residual contaminants. Intra- and extracellular solutions were buffered with 10 mM phosphate. […] The ratio of currents at the end and the beginning of voltage pulses (Iend/Ibgn) was plotted against membrane voltage.

[3] = target: T1, IRK1 channels; conditions: 2000b, cited from earlier work
[4] = target: Kir2.1 (Homo sapiens, UniProt P63252); conditions: 100 μM; cited from earlier work
Kir2.1, sequence (P63252 whole entry): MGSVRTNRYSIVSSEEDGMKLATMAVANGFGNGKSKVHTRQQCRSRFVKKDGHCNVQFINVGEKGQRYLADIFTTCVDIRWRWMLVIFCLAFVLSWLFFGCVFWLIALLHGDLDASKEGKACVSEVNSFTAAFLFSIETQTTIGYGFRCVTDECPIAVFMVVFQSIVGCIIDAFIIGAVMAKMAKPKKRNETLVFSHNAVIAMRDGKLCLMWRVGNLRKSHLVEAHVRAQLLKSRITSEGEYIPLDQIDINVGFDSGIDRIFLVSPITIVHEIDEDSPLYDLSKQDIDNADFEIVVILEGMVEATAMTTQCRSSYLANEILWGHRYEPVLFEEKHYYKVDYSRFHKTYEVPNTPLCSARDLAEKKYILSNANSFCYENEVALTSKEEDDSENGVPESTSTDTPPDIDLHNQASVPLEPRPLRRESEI

[5] = target: Kir1.1 (Homo sapiens, UniProt P48048); conditions: 100 μM; cited from earlier work
Kir1.1, sequence (P48048 whole entry): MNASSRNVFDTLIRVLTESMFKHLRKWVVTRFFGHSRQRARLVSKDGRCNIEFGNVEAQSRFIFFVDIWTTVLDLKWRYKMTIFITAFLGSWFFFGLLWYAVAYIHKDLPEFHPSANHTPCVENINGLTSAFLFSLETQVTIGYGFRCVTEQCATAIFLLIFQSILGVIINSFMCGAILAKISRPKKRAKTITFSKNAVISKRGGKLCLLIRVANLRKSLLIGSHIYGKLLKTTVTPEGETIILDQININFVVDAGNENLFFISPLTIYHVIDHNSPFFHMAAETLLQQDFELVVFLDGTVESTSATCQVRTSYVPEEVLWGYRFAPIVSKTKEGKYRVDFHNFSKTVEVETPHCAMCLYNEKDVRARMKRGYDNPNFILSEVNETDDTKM

[6] = target: Shaker channel (Drosophila melanogaster, UniProt P08510); conditions: 100 μM; cited from earlier work
Shaker channel, sequence (P08510 whole entry): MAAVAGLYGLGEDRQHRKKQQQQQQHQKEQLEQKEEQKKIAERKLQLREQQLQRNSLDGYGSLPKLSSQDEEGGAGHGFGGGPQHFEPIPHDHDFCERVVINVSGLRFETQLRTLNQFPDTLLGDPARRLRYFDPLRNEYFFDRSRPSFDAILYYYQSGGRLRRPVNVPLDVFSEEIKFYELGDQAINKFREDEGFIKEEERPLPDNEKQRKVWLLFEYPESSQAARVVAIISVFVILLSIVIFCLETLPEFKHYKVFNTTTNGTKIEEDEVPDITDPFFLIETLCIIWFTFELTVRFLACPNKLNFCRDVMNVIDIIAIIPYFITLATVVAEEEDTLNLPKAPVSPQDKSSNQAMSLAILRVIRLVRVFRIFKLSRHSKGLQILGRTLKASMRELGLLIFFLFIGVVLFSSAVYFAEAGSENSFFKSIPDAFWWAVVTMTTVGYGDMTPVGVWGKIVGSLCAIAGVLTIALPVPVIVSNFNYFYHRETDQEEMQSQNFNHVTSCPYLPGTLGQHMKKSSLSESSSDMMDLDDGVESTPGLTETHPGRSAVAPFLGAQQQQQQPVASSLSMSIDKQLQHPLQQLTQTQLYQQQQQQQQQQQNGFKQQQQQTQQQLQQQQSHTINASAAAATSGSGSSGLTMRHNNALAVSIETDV

[7] = tested on: Kir2.1 (E224 and E299 replaced with neutral ones); conditions: 100 μM; cited from earlier work
[8] = Goodman & Gilman's; cited from earlier work
[9] = intracellular blocker, Kd at 0 mV, mean±sem, read-out: Kd (0 mV), fit of the Woodhull equation

O=C(O)CN(CC(=O)O)C1CCCCC1N(CC(=O)O)CC(=O)O (stereo not drawn) [CDTA, cyclohexane 1,2-diaminetetraacetic acid]
inward rectification with intracellular metal ion chelator [1]: more pronounced

O=C(O)CN(CCN(CC(=O)O)CC(=O)O)CC(=O)O [EDTA, ethylene diamine tetraacetic acid]
inward rectification with intracellular metal ion chelator [1]: least rectification

O=C(O)CN(CCOCCOCCN(CC(=O)O)CC(=O)O)CC(=O)O [EGTA, ethylene glycol bis(β-aminoethyl ether) N,N,N′,N′-tetraacetic acid]
inward rectification with intracellular metal ion chelator [1]: more pronounced

OCCN1CCNCC1 [HEP, hydroxyethyl piperazine]
relative potency of channel block (qualitative) ([1]; 10 mM HEPES, 3 μM HEP, 0.3 μM piperazine, intracellular): much more potent | Z (valence), fit of the Woodhull equation ([1]; intracellular blocker): 1.09±0.03 | Kd [1, 9]: 2970 ± 160 µM | inward current relaxation / channel block by extracellular chemical ([2]; 20 mM extracellular K+): blocked the channels

O=S(=O)(O)CCN1CCN(CCO)CC1 [HEPES, 4-(2 hydroxyethyl)-1-piperazineethanesulfonic acid]
Z (valence), fit of the Woodhull equation ([1]; intracellular blocker): 1.02±0.02 | inward current relaxation / channel block by extracellular chemical ([2]; 20 mM extracellular K+): prominent inward current relaxation | inward current relaxation / channel block by extracellular chemical ([2]; 100 mM extracellular K+): little or no relaxation

[Mg+2] [Mg^2+]
Kd ([1]; intracellular Mg2+, FIG. 7B, read-out: Kd (0 mV), fit of the Woodhull equation to the Mg2+-inhibition curve): 17 µM | Z (valence), fit of the Woodhull equation ([1]; intracellular blocker): 1.1

NCCN [ethylenediamine]
potency of channel block relative to EDTA ([1]; 0.1 μM ethylenediamine versus 30 mM EDTA, intracellular): > 10,000 fold | Z (valence) ([3]; Guo and Lu): 2 | Kd ([3]; Guo and Lu, read-out: Kd (0 mV)): 1400 µM

C1CNCCN1 [piperazine]
Z (valence), fit of the Woodhull equation ([1]; intracellular blocker): 1.08±0.02 | Kd [1, 9]: 270 ± 40 µM | inward current relaxation / channel block by extracellular chemical ([2]; 20 mM extracellular K+): blocked the channels | inhibition of Kir2.1 [4]: dramatically inhibits | effect on Kir1.1 [5]: no effects | effect on Shaker channel [6]: no effects | sensitivity of mutant Kir2.1 [7]: practically insensitive | adverse effects attending use [8]: Occasional gastrointestinal upset, transient neurological effects, and urticarial reaction | laboratory studies on patients receiving treatment for several days [8]: no abnormality | use during pregnancy [8]: without ill effect

NCCCNCCCCNCCCN [spermine]
effective valence of channel block ([3]; Guo and Lu 2000a): ~5 | Kd ([3]; Guo and Lu 2000a, read-out: Kd (0 mV) for binding of fully protonated spermine): ~0.1 µM
